# According to patent US10556865B2, “Synergistic herbicidal composition containing certain pyridine or pyrimidine carboxylic acids and certain cereal and rice herbicides” (Dow AgroSciences, LLC, priority 2007, dated 2020):
# How the values were obtained:
# Format in all cases: in vivo
# [1] = system: rigid ryegrass (Lolium rigidum L; LOLRI); test: Postemergence herbicidal activity of mixtures in cereal crops (greenhouse, visual injury)
# Description: (§1) Seeds of the desired test plant species were planted in Sun Gro MetroMix® 306 planting mixture, which typically has a pH of 6.0 to 6.8 and an organic matter content of about 30 percent, in plastic pots with a surface area of 103.2 square centimeters (cm^2). When required to ensure good germination and healthy plants, a fungicide treatment and/or other chemical or physical treatment was applied. The plants were grown for 7-36 days in a greenhouse with an approximate 14 hour photoperiod which was maintained at about 18° C. during the day and 17° C. during the night. Nutrients and water were added on a regular basis and supplemental lighting was provided with overhead metal halide 1000-Watt lamps as necessary. The plants were employed for testing when they reached the second or third true leaf stage.
# (§2) Treatments consisted of compound (as listed in Tables 1 through 64) and a second cereal herbicide alone and in combination. Weighed amounts of esters (methyl) or salts (TEA [triethylammonium], K [potassium]) of 4-amino-3-chloro -6-(4-chloro-2-fluoro-3-methoxyphenyl)pyridine-2-carboxylic acid (Compound A) or of 6-amino-5-chloro-2-(4-chloro-2-fluoro-3-methoxyphenyl)pyrimidine-4-carboxylic acid (Compound B), were placed in 25 milliliter (mL) glass vials and dissolved in a volume of 97:3 v/v acetone/DMSO to obtain 4.5 milligrams (mg) active ingredient (ai)/mL stock solutions. […] The concentrated stock solutions were diluted to 1.5 mg ai/mL with the addition of 2 volumes of an aqueous mixture containing acetone, water, isopropyl alcohol, DMSO, Agri-dex crop oil concentrate, and Triton® X-77 surfactant in a 64.7:26.0:6.7:2.0:0.7:0.01 v/v ratio. A dilution solution was prepared by mixing 1 volume of 97:3 v/v acetone/DMSO and 2 volumes of an aqueous mixture containing acetone, water, isopropyl alcohol, DMSO, Agri-dex crop oil concentrate, and Triton® X-77 surfactant in a 64.7:26.0:6.7:2.0:0.7:0.01 v/v ratio. Compound requirements are based upon a 12 mL application volume at a rate of 187 liters per hectare (L/ha). Spray solutions of the second cereal herbicide and experimental compound mixtures were prepared by adding the stock solutions to the appropriate amount of dilution solution to form 12 mL spray solution with active ingredients in two- and three-way combinations. Formulated compounds were applied to the plant material with an overhead Mandel track sprayer equipped with 8002E nozzles calibrated to deliver 187 L/ha over an application area of 0.503 square meters (m^2) at a spray height of 18 inches (43 cm) above average plant canopy. Control plants were sprayed in the same manner with the solvent blank.
# (§3) The treated plants and control plants were placed in a greenhouse as described above and watered by sub-irrigation to prevent wash-off of the test compounds. After 20-22 days, the condition of the test plants as compared with that of the control plants was determined visually and scored on a scale of 0 to 100 percent where 0 corresponds to no injury and 100 corresponds to complete kill.
# (§4) Colby's equation was used to determine the herbicidal effects expected from the mixtures (Colby, S. R. 1967. Calculation of the synergistic and antagonistic response of herbicide combinations. Weeds 15:20-22.).
# (§5) The following equation was used to calculate the expected activity of mixtures containing two active ingredients, A and B: Expected=A+B−(A×B/100)
# [2] = system: Canada thistle (Cirsium arvense L; CIRAR); test: as above
# Description: (§6) The plants were grown for 7-36 days in a greenhouse with an approximate 14 hour photoperiod which was maintained at about 18° C. during the day and 17° C. during the night. Nutrients and water were added on a regular basis and supplemental lighting was provided with overhead metal halide 1000-Watt lamps as necessary. The plants were employed for testing when they reached the second or third true leaf stage.
# (§7) Treatments consisted of compound (as listed in Tables 1 through 64) and a second cereal herbicide alone and in combination. […] Control plants were sprayed in the same manner with the solvent blank.
# as §3, §5
# [3] = system: bird's-eye speedwell (Veronica persica L; VERPE); test: as above
# Description: as §6, §7, §3, §5
# [4] = system: wild pansy (Viola tricolor L; VIOTR); test: as above
# Description: as §6, §7, §3, §5
# [5] = system: Russian thistle (Salsola iberica L; SASKR); test: as above
# Description: as §1, §2, §3, §4, §5
# [6] = system: kochia (Kochia scoparia L; KCHSC); test: as above
# Description: as §1, §2, §3, §4, §5
# [7] = system: scented mayweed (Matricaria chamomila L; MATCH); test: as above
# Description: as §6, §7, §3, §5
# [8] = system: downy brome (Bromus tectorum L; BROTE); test: as above
# Description: as §1, §2, §3, §4, §5
# [9] = system: chickweed (Stellaria media L; STEME); test: as above
# Description: as §1, §2, §3, §4, §5
# [10] = system: windgrass (Apera spica-venti L; APESV); test: as above; settings: Apera spica-venti, post-emergence, 3.75 g/ha, Table 15; read-out: APESV Ob
# Description: as §1, with “When required to ensure good germination and healthy plants, a fungicide treatment and/or other chemical or physical treatment was applied.” left out
# (§8) Treatments consisted of compound (as listed in Tables 1 through 64) and a second cereal herbicide alone and in combination. […] The concentrated stock solutions were diluted to 1.5 mg ai/mL with the addition of 2 volumes of an aqueous mixture containing acetone, water, isopropyl alcohol, DMSO, Agri-dex crop oil concentrate, and Triton® X-77 surfactant in a 64.7:26.0:6.7:2.0:0.7:0.01 v/v ratio. A dilution solution was prepared by mixing 1 volume of 97:3 v/v acetone/DMSO and 2 volumes of an aqueous mixture containing acetone, water, isopropyl alcohol, DMSO, Agri-dex crop oil concentrate, and Triton® X-77 surfactant in a 64.7:26.0:6.7:2.0:0.7:0.01 v/v ratio. Compound requirements are based upon a 12 mL application volume at a rate of 187 liters per hectare (L/ha). […] Formulated compounds were applied to the plant material with an overhead Mandel track sprayer equipped with 8002E nozzles calibrated to deliver 187 L/ha over an application area of 0.503 square meters (m^2) at a spray height of 18 inches […] above average plant canopy. Control plants were sprayed in the same manner with the solvent blank.
# as §3, §4, §5
# [11] = system: black mustard (Brassica nigra L; BRSNI); test: as above
# Description: as §1, §2, §3, §4, §5
# [12] = system: blackgrass (Alopecurus myosuroides L; ALOMY); test: Postemergence herbicidal activity of mixtures in cereal crops (greenhouse, visual injury 0-100 percent after 20-22 days); settings: 8.75 g/ha, Table 19
# Description: as §1, with “When required to ensure good germination and healthy plants, a fungicide treatment and/or other chemical or physical treatment was applied.” left out
# as §8, §3, §4, §5
# [13] = system: wild buckwheat (Polygonum convolvulus L; POLCO); test: Postemergence herbicidal activity of mixtures in cereal crops (greenhouse, visual injury)
# Description: as §1, §2, §3, §4, §5
# [14] = system: cut-leaf geranium (Geranium dissectum L; GERDI); test: as above
# Description: as §1, §2, §3, §4, §5
structure (smiles),measurement,setting,value
"COc1cc(OC)nc(NC(=O)NS(=O)(=O)c2nc(C(F)(F)F)ccc2C(=O)O)n1 [Flupyrsulfuron, 2-[[[[(4,6-dimethoxy-2-pyrimidinyl)amino]carbonyl]amino]sulfonyl]-6-(trifluoromethyl)-3-pyridinecarboxylic acid, reference compound]",LOLRI Ob,"[1]; 5 g/ha, Table 12",0%
same,CIRAR Ob,[2]; 5 g/ha,20%
same,VERPE Ob,[3]; 5 g/ha,0%
same,pest or weed control at 5 g/ha,"[3]; Veronica persica, post-emergence, read-out: VERPE Ob",0%
same,pest or weed control at 5 g/ha,"[4]; Viola tricolor, post-emergence, read-out: VIOTR Ob",0%
COc1c(Cl)ccc(-c2cc(N)c(Cl)c(C(=O)[O-])n2)c1F.[K+] [Compound A K-salt],SASKR Ob,[5]; 8.75 g/ha alone,63%
same,SASKR Ob,[5]; 17.5 g/ha alone,67%
same,SASKR Ob,[5]; 35 g/ha alone,73%
same,KCHSC Ob,[6]; 8.75 g/ha alone,67%
same,KCHSC Ob,[6]; 17.5 g/ha alone,77%
same,KCHSC Ob,[6]; 35 g/ha alone,90%
same,KCHSC Ob,[6]; alone 8.75 g/ha,67%
same,KCHSC Ob,[6]; alone 17.5 g/ha,77%
same,KCHSC Ob,[6]; alone 35 g/ha,90%
same,VERPE Ob,[3]; 8.75 g/ha alone,73%
same,VERPE Ob,[3]; 17.5 g/ha alone,78%
same,VERPE Ob,[3]; 35 g/ha alone,83%
same,VERPE Ob,[3]; alone 8.75 g/ha,73%
same,VERPE Ob,[3]; alone 17.5 g/ha,78%
same,VERPE Ob,[3]; alone 35 g/ha,83%
same,VIOTR Ob,[4]; 8.75 g/ha alone,20%
same,VIOTR Ob,[4]; 17.5 g/ha alone,48%
same,VIOTR Ob,[4]; 35 g/ha alone,42%
same,MATCH Ob,[7]; 8.75 g/ha alone,50%
same,MATCH Ob,[7]; 17.5 g/ha alone,62%
same,MATCH Ob,[7]; 35 g/ha alone,57%
same,MATCH Ob,[7]; alone 8.75 g/ha,50%
same,MATCH Ob,[7]; alone 17.5 g/ha,62%
same,MATCH Ob,[7]; alone 35 g/ha,57%
"COc1cc(OC)nc(NC(=O)NS(=O)(=O)c2cc(CNS(C)(=O)=O)ccc2C(=O)O)n1 [Mesosulfuron, 2-[[[[(4,6-dimethoxy-2-pyrimidinyl)amino]carbonyl]amino]sulfonyl]-4-[[(methylsulfonyl)amino]-methyl]benzoic acid, reference compound]",BROTE Ob,"[8]; 3.75 g/ha, Table 15",75%
same,BROTE Ob,"[8]; 3.8 g/ha, Table 8",73%
same,pest or weed control at 3.75 g/ha,"[9]; Stellaria media, post-emergence, 3.75 g/ha, read-out: STEME Ob",0%
same,CIRAR Ob,[2]; 3.75 g/ha,20%
same,pest or weed control at 3.75 g/ha,"[7]; Matricaria, post-emergence, 3.75 g/ha, read-out: MATCH Ob",5%
same,pest or weed control at 3.75 g/ha,[10],93%
CCCN(CCC)C(=O)SCc1ccccc1 [Prosulfocarb],SASKR Ob,[5]; 500 g/ha alone,0%
same,pest or weed control at 500 g/ha,"[9]; Stellaria media, post-emergence, 500 g/ha alone, read-out: STEME Ob",0%
same,pest or weed control at 500 g/ha,"[7]; Matricaria, post-emergence, 500 g/ha alone, read-out: MATCH Ob",0%
COc1cc(OC)nc(NC(=O)NS(=O)(=O)N(C)S(C)(=O)=O)n1 [Amidosulfuron],CIRAR Ob,[2]; 10 g/ha,20%
same,pest or weed control at 10 g/ha,"[3]; Veronica persica, post-emergence, 10 g/ha, read-out: VERPE Ob",5%
same,pest or weed control at 10 g/ha,"[4]; Viola tricolor, post-emergence, 10 g/ha, read-out: VIOTR Ob",5%
CC(C)c1ccc(NC(=O)N(C)C)cc1 [Isoproturon],SASKR Ob,[5]; 300 g/ha alone,33%
same,pest or weed control at 300 g/ha,"[11]; Brassica, post-emergence, 300 g/ha alone, read-out: BRSNI Ob",40%
same,KCHSC Ob,[6]; 300 g/ha alone,50%
same,pest or weed control at 300 g/ha,"[4]; Viola tricolor, post-emergence, 300 g/ha alone, read-out: VIOTR Ob",0%
"CCS(=O)(=O)c1nc2ccccn2c1S(=O)(=O)NC(=O)Nc1nc(OC)cc(OC)n1 [Sulfosulfuron, N-[[(4,6-dimethoxy-2-pyrimidinyl)amino]carbonyl]-2-(ethylsulfonyl)imidazo[1,2-a]pyridine-3-sulfonamide, reference compound]",LOLRI,"[1]; 8.75 g/ha, Table 19",10%
same,CIRAR Ob,[2]; 8.75 g/ha,10%
same,pest or weed control at 8.75 g/ha,"[3]; Veronica persica, post-emergence, 8.75 g/ha, read-out: VERPE Ob",30%
same,ALOMY Ob,[12],85%
C[N+](C)(C)CCCl [Chlormequat],BRSNI Ob,[11]; 155 g/ha alone,0%
same,KCHSC Ob,[6]; 155 g/ha alone,0%
same,POLCO Ob,[13]; 155 g/ha alone,10%
same,STEME Ob,[9]; 155 g/ha alone,0%
same,GERDI Ob,[14]; 155 g/ha alone,0%
same,MATCH Ob,[7]; 155 g/ha alone,0%
CCC(Oc1ccc(F)c(C(F)(F)F)c1)C(=O)NCc1ccccc1 (stereo not shown) [Beflubutamid],BRSNI Ob,[11]; 35 g/ha,30%
same,BRSNI Ob,[11]; 70 g/ha,30%
same,POLCO Ob,[13]; 35 g/ha,10%
same,POLCO Ob,[13]; 70 g/ha,20%
same,STEME Ob,[9]; 35 g/ha,10%
same,STEME Ob,[9]; 70 g/ha,10%
same,GERDI Ob,[14]; 35 g/ha,0%
same,GERDI Ob,[14]; 70 g/ha,0%
same,VERPE Ob,[3]; 35 g/ha,15%
same,VERPE Ob,[3]; 70 g/ha,23%
same,VIOTR Ob,[4]; 35 g/ha,15%
same,VIOTR Ob,[4]; 70 g/ha,23%
COc1ncc(F)c2nc(S(=O)(=O)Nc3c(F)cccc3F)nn12 [Florasulam],CIRAR Ob,[2]; 1.25 g/ha,20%
same,VERPE Ob,[3]; 1.25 g/ha,5%
same,VERPE Ob,[3]; 1.3 g/ha alone,28%
same,VIOTR Ob,[4]; 1.25 g/ha,10%
same,VIOTR Ob,[4]; 1.3 g/ha alone,53%
same,MATCH Ob,[7]; 1.3 g/ha alone,83%
